In patent US9695155B2, “Herbicidal substituted pyrimidinyloxy benzene compounds” (E. I. DU PONT DE NEMOURS AND COMPANY, priority 2013, dated 2017):

Columns and labels:
giant foxtail = assay: Test A postemergence; format: in vivo, Setaria faberii; conditions: 0 to 100 scale where 0 is no effect and 100 is complete control; for Foxtail, Giant plant response rating: 125 g ai/ha; for Plant response rating, Foxtail, Giant: 500 g ai/ha
In short: (§1)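 Pre- and postemergence greenhouse screen. Soil: loam + sand. Spray carrier: solvent mixture, non-phytotoxic, with surfactant. Post timing at 1–2 leaves, height 2–10 cm. Readout: visual injury on a 0–100 scale roughly 10 days after application, untreated plants as reference.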

barnyardgrass [1] = assay: Test A preemergence; format: in vivo, Echinochloa crus-galli; conditions: for Barnyardgrass plant response rating (0 to 100 scale, 0 is no effect, 100 is complete control): 125 g ai/ha; for Barnyardgrass plant response rating: 500 g ai/ha, 0 to 100 scale where 0 is no effect and 100 is complete control
In short: as §1

corn [2] = assay: Test A postemergence; format: in vivo, Zea mays; conditions: 0 to 100 scale where 0 is no effect and 100 is complete control; for Corn plant response rating: 125 g ai/ha; for Plant response rating, Corn: 500 g ai/ha
In short: as §1

wheat [3] = assay: Test A preemergence; format: in vivo, Triticum aestivum; conditions: for Wheat plant response rating (0 to 100 scale): 125 g ai/ha
In short: as §1

corn [4] = assay: Test A preemergence; format: in vivo, Zea mays; conditions: for Corn plant response rating (0 to 100 scale): 125 g ai/ha; for Corn plant response rating: 500 g ai/ha, 0 to 100 scale where 0 is no effect and 100 is complete control
In short: as §1

kochia = assay: Test C postemergence; format: in vivo, Kochia scoparia; conditions: for Kochia plant response rating: 31 g ai/ha; for Kochia plant response rating / Plant response rating, Kochia: scale 0 to 100 (0 no effect, 100 complete control)
In short: (§2)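 Seeds were sown in loam–sand blend and sprayed preemergence, while plants at 1- to 4-leaf stage (2–18 cm) in peat-based medium received postemergence sprays; test chemicals were formulated in a non-phytotoxic solvent with surfactant. After 13–15 days in a greenhouse, injury was rated visually against controls, 0 (no effect) to 100 (complete control).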

pigweed [5] = assay: Test C postemergence; format: in vivo, Amaranthus retroflexus; conditions: for Pigweed plant response rating: 31 g ai/ha; for Pigweed plant response rating / Plant response rating, Pigweed: scale 0 to 100 (0 no effect, 100 complete control)
In short: as §2

barnyardgrass [6] = assay: Test C postemergence; format: in vivo, Echinochloa crus-galli; conditions: for Barnyardgrass plant response rating: 31 g ai/ha, 13 to 15 days; for Barnyardgrass plant response rating / Plant response rating, Barnyardgrass: scale 0 to 100 (0 no effect, 100 complete control)
In short: as §2

Heteranthera limosa = assay: Test B flooded paddy test; format: in vivo; conditions: Flood, 250 g ai/ha; 0 to 100 scale where 0 is no effect and 100 is complete control
In short: (§3)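 Plants at 2-leaf stage; pots flooded to 3 cm above soil and compound applied directly into paddy water, depth held throughout. After 13 to 15 days in greenhouse, visual rating versus controls on 0 (no effect) to 100 (complete control) scale.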

pigweed [7] = assay: Test A preemergence; format: in vivo, Amaranthus retroflexus; conditions: for Pigweed plant response rating (0 to 100 scale): 125 g ai/ha; for Pigweed plant response rating: 500 g ai/ha, 0 to 100 scale where 0 is no effect and 100 is complete control
In short: as §1

sedge, umbrella = assay: Test B flooded paddy test; format: in vivo, Cyperus difformis; conditions: Flood, 250 g ai/ha; 0 to 100 scale where 0 is no effect and 100 is complete control
In short: as §3

barnyardgrass [8] = assay: Test A postemergence; format: in vivo, Echinochloa crus-galli; conditions: 0 to 100 scale where 0 is no effect and 100 is complete control; for Barnyardgrass plant response rating: 125 g ai/ha; for Plant response rating, Barnyardgrass: 500 g ai/ha
In short: as §1

galium = assay: Test C postemergence; format: in vivo, Galium aparine; conditions: for Galium plant response rating: 31 g ai/ha; for Galium plant response rating / Plant response rating, Galium: scale 0 to 100 (0 no effect, 100 complete control)
In short: as §2

velvetleaf = assay: Test C postemergence; format: in vivo, Abutilon theophrasti; conditions: for Velvetleaf plant response rating: 31 g ai/ha; for Velvetleaf plant response rating / Plant response rating, Velvetleaf: scale 0 to 100 (0 no effect, 100 complete control)
In short: as §2

wheat [9] = assay: Test A postemergence; format: in vivo, Triticum aestivum; conditions: 0 to 100 scale where 0 is no effect and 100 is complete control; for Wheat plant response rating: 125 g ai/ha; for Plant response rating, Wheat: 500 g ai/ha
In short: as §1

rice = assay: Test B flooded paddy test; format: in vivo, Oryza sativa; conditions: Flood, 250 g ai/ha; 0 to 100 scale where 0 is no effect and 100 is complete control
In short: as §3

pigweed [10] = assay: Test A postemergence; format: in vivo, Amaranthus retroflexus; conditions: 0 to 100 scale where 0 is no effect and 100 is complete control; for Pigweed plant response rating: 125 g ai/ha; for Plant response rating, Pigweed: 500 g ai/ha
In short: as §1

[11] = 16 g ai/ha, postemergence, 0 is no effect, 100 is complete control
[12] = postemergence, visual rating, 13 to 15 days
[13] = 125 g ai/ha, postemergence, visual rating
[14] = Postemergence, 62 g ai/ha, 13 to 15 days

## FC(F)c1cnn(-c2c(Cl)cccc2Oc2ncc(Cl)cn2)c1 [Compound 192]
Giant foxtail
  Foxtail, Giant plant response rating: 70
  Plant response rating, Foxtail, Giant: 90
Barnyardgrass [1]
  Barnyardgrass plant response rating (0 to 100 scale, 0 is no effect, 100 is complete control): 60
  Barnyardgrass plant response rating: 100
Corn [2]
  Corn plant response rating: 10
  Plant response rating, Corn: 60
Wheat [3]
  Wheat plant response rating (0 to 100 scale): 0
Corn [4]
  Corn plant response rating (0 to 100 scale): 0
  Corn plant response rating: 50
kochia; [11]
  Plant response rating (0 to 100), Kochia: 30
kochia; [12]
  Kochia plant response rating: 45
kochia; [13]
  Plant response rating, Kochia: 90
kochia; [14]
  Plant response rating, Kochia: 85
Pigweed [5]; [11]
  Plant response rating (0 to 100), Pigweed: 60
Pigweed [5]; [12]
  Pigweed plant response rating: 65
Pigweed [5]; [13]
  Plant response rating, Pigweed: 70
Pigweed [5]; [14]
  Plant response rating, Pigweed: 80
Barnyardgrass [6]; [11]
  Plant response rating (0 to 100), Barnyardgrass: 5
Barnyardgrass [6]; postemergence, visual rating
  Barnyardgrass plant response rating: 10
Barnyardgrass [6]; [13]
  Plant response rating, Barnyardgrass: 10
Barnyardgrass [6]; Postemergence, 62 g ai/ha
  Plant response rating, Barnyardgrass: 10
Heteranthera limosa
  Plant response rating, Ducksalad: 90
Pigweed [7]
  Pigweed plant response rating (0 to 100 scale): 100
  Pigweed plant response rating: 100
sedge, umbrella
  Plant response rating, Sedge, Umbrella: 85
Barnyardgrass [8]
  Barnyardgrass plant response rating: 60
  Plant response rating, Barnyardgrass: 90
galium; [11]
  Plant response rating (0 to 100), Galium: 60
galium; [12]
  Galium plant response rating: 80
galium; [13]
  Plant response rating, Galium: 85
galium; [14]
  Plant response rating, Galium: 80
velvetleaf; [11]
  Plant response rating (0 to 100), Velvetleaf: 35
velvetleaf; [12]
  Velvetleaf plant response rating: 60
velvetleaf; [13]
  Plant response rating, Velvetleaf: 75
velvetleaf; [14]
  Plant response rating, Velvetleaf: 65
Wheat [9]
  Wheat plant response rating: 0
  Plant response rating, Wheat: 50
rice
  Plant response rating, Rice: 0
Pigweed [10]
  Pigweed plant response rating: 100
  Plant response rating, Pigweed: 100

## N#Cc1cnn(-c2c(C#N)cccc2Oc2ncc(Cl)cn2)c1 [Compound 200]
Giant foxtail
  Foxtail, Giant plant response rating: 90
  Plant response rating, Foxtail, Giant: 90
Barnyardgrass [1]
  Barnyardgrass plant response rating (0 to 100 scale, 0 is no effect, 100 is complete control): 80
  Barnyardgrass plant response rating: 90
Corn [2]
  Corn plant response rating: 50
  Plant response rating, Corn: 60
Wheat [3]
  Wheat plant response rating (0 to 100 scale): 30
Wheat [3]; 500 g ai/ha, 0 to 100 scale where 0 is no effect and 100 is complete control
  Wheat plant response rating: 50
Corn [4]
  Corn plant response rating (0 to 100 scale): 40
  Corn plant response rating: 50
kochia; [12]
  Kochia plant response rating: 80
kochia; [13]
  Plant response rating, Kochia: 98
kochia; 250 g ai/ha, postemergence
  Plant response rating (0 to 100), Kochia: 100
kochia; [14]
  Plant response rating, Kochia: 95
Pigweed [5]; [12]
  Pigweed plant response rating: 75
Pigweed [5]; [13]
  Plant response rating, Pigweed: 95
Pigweed [5]; 250 g ai/ha, postemergence
  Plant response rating (0 to 100), Pigweed: 95
Pigweed [5]; [14]
  Plant response rating, Pigweed: 90
Barnyardgrass [6]; postemergence, visual rating
  Barnyardgrass plant response rating: 0
Barnyardgrass [6]; [13]
  Plant response rating, Barnyardgrass: 10
Barnyardgrass [6]; 250 g ai/ha, postemergence
  Plant response rating (0 to 100), Barnyardgrass: 15
Barnyardgrass [6]; Postemergence, 62 g ai/ha
  Plant response rating, Barnyardgrass: 5
Heteranthera limosa
  Plant response rating, Ducksalad: 95
Pigweed [7]
  Pigweed plant response rating (0 to 100 scale): 100
  Pigweed plant response rating: 100
sedge, umbrella
  Plant response rating, Sedge, Umbrella: 85
Barnyardgrass [8]
  Barnyardgrass plant response rating: 80
  Plant response rating, Barnyardgrass: 90
galium; [12]
  Galium plant response rating: 60
galium; [13]
  Plant response rating, Galium: 85
galium; 250 g ai/ha, postemergence
  Plant response rating (0 to 100), Galium: 95
galium; [14]
  Plant response rating, Galium: 65
velvetleaf; [12]
  Velvetleaf plant response rating: 20
velvetleaf; [13]
  Plant response rating, Velvetleaf: 75
velvetleaf; 250 g ai/ha, postemergence
  Plant response rating (0 to 100), Velvetleaf: 70
velvetleaf; [14]
  Plant response rating, Velvetleaf: 50
Wheat [9]
  Wheat plant response rating: 40
  Plant response rating, Wheat: 60
rice
  Plant response rating, Rice: 20
Pigweed [10]
  Pigweed plant response rating: 100
  Plant response rating, Pigweed: 100
